# Test results from patent US9073821B2, “Hydroxamic acid derivative” (priority 2010, dated 2015).
# Target: Pseudomonas aeruginosa LpxC enzyme (Pseudomonas aeruginosa (strain ATCC 15692 / DSM 22644 / CIP 104116 / JCM 14847 / LMG 12228 / 1C / PRS 101 / PAO1), UniProt P47205)
# Assay: biochemical
# Type: biochemical
# Details: class symbols A/B/C by IC50; Table 3; read-out: Enzyme inhibitory activity (inhibitory activity on Pseudomonas aeruginosa LpxC enzyme)
# Method: Test 1: Evaluation of the Inhibitory Activity on Pseudomonas aeruginosa LpxC Enzyme
# An inhibition curve was constructed for each test compound by performing the aforementioned reaction at varying concentrations of the test compound. From this inhibition curve, the concentration of the test compound at which the formation of the reaction product was suppressed by 50% was determined as the IC50 of the test compound, which was an index for the inhibitory activity on Pseudomonas aeruginosa LpxC enzyme.
row,Compound,IC50
1,"CNC(=O)C(C(=O)NO)N(C)C(=O)c1ccc(C#Cc2ccc(CN3CC(=CCOC)C3)cc2)cc1 (stereo not drawn) [Compound 530, N-hydroxy-2-[({4-[(4-{[3-(2-methoxyethylidene)azetidin-1-yl]methyl}phenyl)ethynyl]phenyl}carbonyl)(methyl)amino]-N′-methylpropanediamide]",< 10 nM

# Same assay, conditions: inhibitory activity on Pseudomonas aeruginosa LpxC enzyme, class symbols A/B/C; read-out: Enzyme inhibitory activity
row,Compound,IC50
1,"O=C(NC(C(=O)NO)C(=O)NCC1CC1)c1ccc(-c2ccc(OCCO)cc2)cc1 (stereo not drawn) [Compound 9, N-(cyclopropylmethyl)-N′-hydroxy-2-({[4′-(2-hydroxyethoxy)biphenyl-4-yl]carbonyl}amino)propanediamide]",10 to 100 nM
2,"CNC(=O)C(C(=O)NO)N(C)C(=O)c1ccc(-c2ccc(SC)cc2)cc1 (stereo not drawn) [Compound 42, N-hydroxy-N′-methyl-2-(methyl {[4′-(methylsulfanyl)biphenyl-4-yl]carbonyl}amino)propanediamide]",< 10 nM
3,"CNC(=O)C(C(=O)NO)N(C)C(=O)c1ccc(-c2ccc(OCCCN(C)Cc3ccccc3)cc2)cc1 (stereo not drawn) [Compound 70, 2-{[(4′-{3-[benzyl(methyl)amino]propoxy}biphenyl-4-yl)carbonyl](methyl)amino}-N-hydroxy-N′-methylpropanediamide]",< 10 nM
4,"CNC(=O)C(C(=O)NO)N(C)C(=O)c1ccc(-c2ccc(OCCOCCO)cc2)cc1 (stereo not drawn) [Compound 15, N-hydroxy-2-[({4′-[2-(2-hydroxyethoxy)ethoxy]biphenyl-4-yl}carbonyl)(methyl)amino]-N′-methylpropanediamide]",10 to 100 nM
5,"CNC(=O)C(C(=O)NO)N(C)C(=O)c1ccc(C#CC#Cc2ccc(CNC3CC3)cc2)cc1 (stereo not drawn) [Compound 476, 2-[{[4-(4-{4-[(cyclopropylamino)methyl]phenyl}buta-1,3-diyn-1-yl)phenyl]carbonyl}(methyl)amino]-N-hydroxy-N′-methylpropanediamide]",< 10 nM
6,"CNC(=O)C(C(=O)NO)N(C)C(=O)c1ccc(-c2ccc3ncn(C)c3c2)cc1 (stereo not drawn) [Compound 282, N-hydroxy-N′-methyl-2-{methyl[4-(1-methyl-1H-benzimidazol-6-yl)benzoyl]amino}propanediamide]",10 to 100 nM
7,"CNC(=O)C(C(=O)NO)N(C)C(=O)c1ccc(-c2ccc(OCCCN3CCS(=O)(=O)CC3)cc2)cc1 (stereo not drawn) [Compound 289, 2-[({4′-[3-(1,1-dioxidothiomorpholin-4-yl)propoxy]biphenyl-4-yl}carbonyl)(methyl)amino]-N-hydroxy-N′-methylpropanediamide]",< 10 nM
8,"CNC(=O)C(C(=O)NO)N(C)C(=O)c1ccc(OCc2ccc(OC)cc2)cc1 (stereo not drawn) [Compound 319, N-hydroxy-2-[({4-[(4-methoxybenzyl)oxy]phenyl}carbonyl)(methyl)amino]-N′-methylpropanediamide]",10 to 100 nM
9,"CNC(=O)[C@@](C)(C(=O)NO)N(C)C(=O)c1ccc(C#Cc2ccc(CS(C)(=O)=O)cc2)cc1 [Compound 422, (2S)-N-hydroxy-N′,2-dimethyl-2-(methyl {[4-({4-[(methylsulfonyl)methyl]phenyl}ethynyl)phenyl]carbonyl}amino)propanediamide]",< 10 nM
10,"CNC(=O)C(C(=O)NO)N(C)C(=O)c1ccc(-c2ccc(OCCCN(C)CCOC)cc2)cc1 (stereo not drawn) [Compound 64, N-hydroxy-2-{[(4′-{3-[(2-methoxyethyl)(methyl)amino]propoxy}biphenyl-4-yl)carbonyl](methyl)amino}-N′-methylpropanediamide]",10 to 100 nM
11,"CNC(=O)C(C(=O)NO)N(C)C(=O)c1ccc(-c2ccc3c(ccn3CCCCO)c2)cc1 (stereo not drawn) [Compound 26, N-hydroxy-2-[{4-[1-(4-hydroxybutyl)-1H-indol-5-yl]benzoyl}(methyl)amino]-N′-methylpropanediamide]",< 10 nM
12,"CNC(=O)C(C(=O)NO)N(C)C(=O)c1ccc(-c2ccc3ncccc3c2)cc1 (stereo not drawn) [Compound 200, N-hydroxy-N′-methyl-2-{methyl[4-(quinolin-6-yl)benzoyl]amino}propanediamide]",< 10 nM
13,"CNC(=O)C(C(=O)NO)N(C)C(=O)c1ccc(-c2ccc(C)nc2)cc1 (stereo not drawn) [Compound 450, N-hydroxy-N′-methyl-2-(methyl {[4-(6-methylpyridin-3-yl)phenyl]carbonyl}amino)propanediamide]",> 100 nM
14,"CNC(=O)C(C(=O)NO)N(C)C(=O)c1ccc(-c2ccc(CN(C)C)cc2)cc1 (stereo not drawn) [Compound 194, 2-[({4′-[(dimethylamino)methyl]biphenyl-4-yl}carbonyl)(methyl)amino]-N-hydroxy-N′-methylpropanediamide]",> 100 nM
15,"O=C(NC(C(=O)NO)C(=O)NCCCc1ccccc1)c1ccc(-c2ccc(OCCO)cc2)cc1 (stereo not drawn) [Compound 126, N-hydroxy-2-({[4′-(2-hydroxyethoxy)biphenyl-4-yl]carbonyl}amino)-N′-(3-phenylpropyl)propanediamide]",< 10 nM
16,"CNC(=O)C(C(=O)NO)N(C)C(=O)c1ccc(-c2ccc(OCC(C)(C)O)cc2)cc1 (stereo not drawn) [Compound 280, N-hydroxy-2-[{[4′-(2-hydroxy-2-methylpropoxy)biphenyl-4-yl]carbonyl}(methyl)amino]-N′-methylpropanediamide]",< 10 nM

row,Compound,IC50
1,"CNC(=O)C(C(=O)NO)N(C)C(=O)c1ccc(-c2ccc(/C=N/O)cc2)cc1 (stereo not drawn) [Compound 195, N-hydroxy-2-[({4′-[(E)-(hydroxyimino)methyl]biphenyl-4-yl}carbonyl)(methyl)amino]-N′-methylpropanediamide]",< 10 nM
2,"CNC(=O)C(C(=O)NO)N(C)C(=O)c1ccc(C#Cc2ccc(CNCc3cc(C)on3)cc2)cc1 (stereo not drawn) [Compound 482, N-hydroxy-N′-methyl-2-{methyl[(4-{[4-({[(5-methyl-1,2-oxazol-3-yl)methyl]amino}methyl)phenyl]ethynyl}phenyl)carbonyl]amino}propanediamide]",< 10 nM
3,"O=C(NC(C(=O)NO)C(=O)NCc1cncs1)c1ccc(-c2ccc(OCCO)cc2)cc1 (stereo not drawn) [Compound 11, N-hydroxy-2-({[4′-(2-hydroxyethoxy)biphenyl-4-yl]carbonyl}amino)-N′-(1,3-thiazol-5-ylmethyl)propanediamide]",< 10 nM
4,"CNC(=O)C(C(=O)NO)N(C)C(=O)c1ccc(-c2ccc(OCc3cccc(CN4CCOCC4)c3)cc2)cc1 (stereo not drawn) [Compound 87, N-hydroxy-N′-methyl-2-{methyl[(4′-{[3-(morpholin-4-ylmethyl)benzyl]oxy}biphenyl-4-yl)carbonyl]amino}propanediamide]",< 10 nM
5,"CNC(=O)C(C(=O)NO)N(C)C(=O)c1ccc(C#Cc2ccc(CNCCS(C)(=O)=O)cc2)cc1 (stereo not drawn) [Compound 378, N-hydroxy-N′-methyl-2-{methyl[(4-{[4-({[2-(methylsulfonyl)ethyl]amino}methyl)phenyl]ethynyl}phenyl)carbonyl]amino}propanediamide]",< 10 nM
6,"CNC(=O)C(NC(=O)c1ccc(-c2ccc(OCCOCCO)cc2)cc1)C(=O)NO (stereo not drawn) [Compound 14, N-hydroxy-2-[({4′-[2-(2-hydroxyethoxy)ethoxy]biphenyl-4-yl}carbonyl)amino]-N′-methylpropanediamide]",< 10 nM
7,"CNC(=O)C(C(=O)NO)N(C)C(=O)c1ccc(C#Cc2ccc(CN3Cc4ccccc4C3)cc2)cc1 (stereo not drawn) [Compound 489, 2-{[(4-{[4-(1,3-dihydro-2H-isoindol-2-ylmethyl)phenyl]ethynyl}phenyl)carbonyl](methyl)amino}-N-hydroxy-N′-methylpropanediamide]",< 10 nM
8,"CNC(=O)C(C(=O)NO)N(C)C(=O)c1ccc(-c2ccc(OCCCCO)cc2)cc1 (stereo not drawn) [Compound 180, N-hydroxy-2-[{[4′-(4-hydroxybutoxy)biphenyl-4-yl]carbonyl}(methyl)amino]-N′-methylpropanediamide]",< 10 nM
9,"CNC(=O)C(C(=O)NO)N(C)C(=O)c1ccc(-c2ccc(/N=C/NO)cc2)cc1 (stereo not drawn) [Compound 272, N-hydroxy-2-{[(4′-{[(E)-(hydroxyamino)methylidene]amino}biphenyl-4-yl)carbonyl](methyl)amino}-N′-methylpropanediamide]",< 10 nM
10,"CNC(=O)C(C(=O)NO)N(C)C(=O)c1ccc(-c2ccc(CCCCN3CCOCC3)cc2)cc1 (stereo not drawn) [Compound 221, N-hydroxy-N′-methyl-2-[methyl({4′-[4-(morpholin-4-yl)butyl]biphenyl-4-yl}carbonyl)amino]propanediamide]",< 10 nM
11,"CNC(=O)C(C(=O)NO)N(C)C(=O)c1ccc(-c2ccc3c(c2)cc(CO)n3C)cc1 (stereo not drawn) [Compound 41, N-hydroxy-2-[{4-[2-(hydroxymethyl)-1-methyl-1H-indol-5-yl]benzoyl}(methyl)amino]-N′-methylpropanediamide]",< 10 nM
12,"O=C(NC(C(=O)NO)C(=O)NCc1cccnc1)c1ccc(-c2ccc(OCCO)cc2)cc1 (stereo not drawn) [Compound 129, N-hydroxy-2-({[4′-(2-hydroxyethoxy)biphenyl-4-yl]carbonyl}amino)-N′-(pyridin-3-ylmethyl)propanediamide]",< 10 nM
13,"CN(C(=O)c1ccc(-c2ccccc2)cc1)C(C(=O)NO)C(=O)NCc1cccnc1 (stereo not drawn) [Compound 177, 2-[(biphenyl-4-ylcarbonyl)(methyl)amino]-N-hydroxy-N′-(pyridin-3-ylmethyl)propanediamide]",10 to 100 nM
14,"CNC(=O)C(C(=O)NO)N(C)C(=O)c1ccc(-c2cnco2)cc1 (stereo not drawn) [Compound 310, N-hydroxy-N′-methyl-2-(methyl {[4-(1,3-oxazol-5-yl)phenyl]carbonyl}amino)propanediamide]",> 100 nM
15,"CNC(=O)C(C(=O)NO)N(C)C(=O)c1ccc(-c2ccc(OCC(C)C)cc2)cc1 (stereo not drawn) [Compound 214, N-hydroxy-N′-methyl-2-(methyl {[4′-(2-methylpropoxy)biphenyl-4-yl]carbonyl}amino)propanediamide]",< 10 nM
16,"CC(=O)N(C)CCNC(=O)C(NC(=O)c1ccc(-c2ccc(OCCO)cc2)cc1)C(=O)NO (stereo not drawn) [Compound 145, N-{2-[acetyl(methyl)amino]ethyl}-N′-hydroxy-2-({[4′-(2-hydroxyethoxy)biphenyl-4-yl]carbonyl}amino)propanediamide]",10 to 100 nM
